Assay results taken from paper PMC6920997, “Total Phenolic and Flavonoid Content and Biological Activities of Extracts and Isolated Compounds of Cytisus villosus Pourr” (Biomolecules, 2019).
≈ marks a conversion by molar mass, not a printed value. Read-outs that look alike come from different tables or passages of the source.

How the values were obtained:
[1] = test system: L. donovani axenic amastigotes; assay: Antileishmanial Alamar Blue assay, axenic amastigotes; assay type: cell-based; details: Leishmania donovani; for IC50: read-out: L. donovani Amastigote IC50; for IC90: read-out: L. donovani Amastigote IC90
Source text: (§1) The in vitro antileishmanial and antitrypanosomal assays were done on cell cultures of L. donovani promastigotes, axenic amastigotes, THP1-amastigotes, and Trypanosoma brucei trypomastigotes by Alamar Blue assays. The conditions for seeding the THP1 cells, exposure to the test samples, and evaluation of cytotoxicity were the same as described in parasite-rescue and transformation assay. IC50 and IC90 values were computed from the dose response curves using XLfit software (XLfit 5.3.1, IDBS analytical, Boston MA, USA). DFMO (difluoromethylornithine) was used as the positive control. The antiprotozoal activity of C. villosus extracts and isolated compounds were evaluated in vitro against L. donovani promastigotes, axenic amastigotes, and intracellular amastigotes in THP1 cells. The extracts and some isolated compounds were also evaluated against T. brucei trypomastigote forms. All the extracts and compounds were simultaneously tested against THP1 cell for determination of general cytotoxicity. The extracts and isolated compounds were also evaluated for their antimalarial activity against chloroquine-sensitive (D6, Sierra Leone) and chloroquine-resistant strains (W2, Indochina) strains of Plasmodium falciparum. Furthermore, they were tested for cytotoxicity against the Vero cell line.

Candida albicans = assay: Antifungal assay C. albicans; assay type: cell-based; details: for inhibition at 50 µg/mL: Concentration: 50 μg/mL, <50 considered inactive, read-out: % Growth Inhibition C. albicans
Protocol: (§2) Extracts and pure compounds were tested for their antimicrobial activity against Staphylococcus aureus, methicillin-resistant S. aureus (MRSA), Escherichia coli, Pseudomonas aeruginosa, and Mycobacterium intracellulare. The antifungal activities were evaluated against a panel of pathogenic fungi, including Candida albicans, C. glabrata, C. krusei, Aspergillus fumigatus, and Cryptococcus neoformans, associated with opportunistic infections.

Aspergillus fumigatus = assay: Antifungal assay A. fumigatus; assay type: cell-based; details: Concentration: 50 μg/mL, <50 considered inactive, read-out: % Growth Inhibition A. fumigatus
Protocol: as §2

[2] = test system: methicillin-resistant S. aureus (MRSA); assay: Antibacterial assay MRSA; assay type: cell-based; details: Staphylococcus aureus, Concentration: 50 μg/mL, <50 considered inactive, read-out: % Growth Inhibition MRSA
Protocol: as §2

[3] = test system: L. donovani promastigotes; assay: Antileishmanial Alamar Blue assay, promastigotes; assay type: cell-based; details: Leishmania donovani; for IC50: read-out: L. donovani Promastigote IC50; for IC90: read-out: L. donovani Promastigote IC90
Source text: as §1

Escherichia coli = assay: Antibacterial assay E. coli; assay type: cell-based; details: for inhibition at 50 µg/mL: Concentration: 50 μg/mL, <50 considered inactive, read-out: % Growth Inhibition E. coli
Protocol: as §2

Pseudomonas aeruginosa = assay: Antibacterial assay P. aeruginosa; assay type: cell-based; details: for inhibition at 50 µg/mL: Concentration: 50 μg/mL, <50 considered inactive, read-out: % Growth Inhibition P. aeruginosa
Protocol: as §2

[4] = test system: L. donovani intracellular amastigotes in THP1 cells; assay: Antileishmanial assay, intracellular amastigotes in THP1 cells; assay type: cell-based; details: Leishmania donovani; for IC50: THP-1, read-out: L. donovani Amastigote/THP1 IC50; for IC90: THP-1, read-out: L. donovani Amastigote/THP1 IC90
Source text: as §1

Cryptococcus neoformans = assay: Antifungal assay C. neoformans; assay type: cell-based; details: for inhibition at 50 µg/mL: Concentration: 50 μg/mL, <50 considered inactive, read-out: % Growth Inhibition C. neoformans
Protocol: as §2

THP1 cells = assay: THP1 cytotoxicity; assay type: cell-based
Source text: as §1

THP1 cytotoxicity = assay type: cell-based; details: human
Source text: as §1

[5] = DPPH radical scavenging assay; details: mean ± SD of three measurements
Protocol: The antioxidant activity of the extracts and pure isolated compounds was determined by applying the 2,2-diphenyl-1-picrylhydrazyl (DPPH) radical scavenging method.

[6] = Cytotoxicity against Vero cell line (antimalarial counterscreen); assay type: cell-based; details: African green monkey, column head does not name the cells, read-out: IC50 (third IC50 column of Table 7, presumably Vero cytotoxicity)
Source text: as §1

P. falciparum (W2 Clone) = assay: Antimalarial assay, chloroquine-resistant W2 clone; assay type: cell-based, Plasmodium falciparum; details: for SI (second SI column of Table 7, presumably W2): selectivity index = IC50 for cytotoxicity/IC50 for antimalarial activity
Source text: as §1

P. falciparum (D6 Clone) = assay: Antimalarial assay, chloroquine-sensitive D6 clone; assay type: cell-based, Plasmodium falciparum; details: for SI (first SI column of Table 7, presumably D6): selectivity index = IC50 for cytotoxicity/IC50 for antimalarial activity
Source text: as §1

iNOS = assay: Inhibition of iNOS (intracellular NO production) in RAW 264.7 macrophages; assay type: cell-based; details: Mus musculus, RAW264.7; RAW 264.7 cells; NA = no activity at 25 µg/mL (pure compounds) or 100 µg/mL (extracts)
Protocol: The extracts and isolated compounds of C. villosus were evaluated in terms of their interaction with cellular targets related to inflammation and metabolic disorders, such as iNOS and NF-κB. The inhibition of intracellular NO production as a result of iNOS activity was assayed in mouse macrophages (RAW 264.7cells). Cytotoxicity of test samples to macrophages was also determined in parallel to check if the inhibition of iNOS was due to cytotoxic effects.

NF-κB = assay: Reporter gene assay for the inhibition of NF-κB; assay type: cell-based; details: PMA-treated cells, luciferase reporter; NA = no activity at 25 µg/mL (pure compounds) or 100 µg/mL (extracts); read-out: Inhibition of NF-kB IC50
Protocol: Reporter gene assay for the inhibition of NF-κB Activity was performed as described earlier. In brief, cells transfected with NF-κB luciferase plasmid construct were plated in 96-well plates at a density of 1.25 × 10^5 cells/well. After 24 h, cells were treated with the test compounds and, after incubating for 30 min, phorbol 12-myristate 13-acetate (PMA) (Sigma-Aldrich, Burlington MA, USA) (70 ng/mL) was added and further incubated for 6−8 h. Luciferase activity was measured as described above. Percent decrease in luciferase activity was calculated relative to the vehicle control. Parthenolide (Sigma-Aldrich, Burlington MA, USA) was used as a positive control.

[7] = test system: Trypanosoma brucei trypomastigotes; assay: Antitrypanosomal Alamar Blue assay; assay type: cell-based; details: Trypanosoma brucei, Table 4
Source text: as §1

Staphylococcus aureus = assay: Antibacterial assay S. aureus; assay type: cell-based; details: pure compounds
Protocol: as §2

Compound: C[C@@H]1[C@H](O)[C@@H](C)/C=C/C=C/C=C/C=C/C=C/C=C/C=C/[C@H](O[C@@H]2O[C@H](C)[C@@H](O)[C@H](N)[C@@H]2O)C[C@@H]2O[C@](O)(C[C@@H](O)C[C@@H](O)[C@H](O)CC[C@@H](O)C[C@@H](O)CC(=O)O[C@H]1C)C[C@H](O)[C@H]2C(=O)O [Amphotericin B, reference compound]
- IC50 [1]: 211 nM
- IC90 [1]: 374 nM
- inhibition at 50 µg/mL (Candida albicans): 100%
- inhibition at 50 µg/mL (Aspergillus fumigatus): 93%
- inhibition at 50 µg/mL [2]: 1%
- IC50 [3]: 136 nM
- IC90 [3]: 215 nM
- inhibition at 50 µg/mL (Escherichia coli): 0%
- inhibition at 50 µg/mL (Pseudomonas aeruginosa): 0%
- IC50 [4]: 188 nM
- IC90 [4]: 421 nM
- inhibition at 50 µg/mL (Cryptococcus neoformans): 100%
- THP1 Cytotoxicity C90 (THP1 cells; human): >2 µM
- IC50 (THP1 cytotoxicity): > 2000 nM

Compound: O=C1O[C@H]([C@@H](O)CO)C(O)=C1O [Ascorbic acid]
- DPPH Scavenging IC50 [5]: 43 ± 6 µg/mL

Compound: O=C(O)c1cn(C2CC2)c2cc(N3CCNCC3)c(F)cc2c1=O [CIPRO, Ciprofloxacin, reference compound]
- inhibition at 50 µg/mL (Candida albicans): 0%
- inhibition at 50 µg/mL [2]: 0%
- inhibition at 50 µg/mL (Escherichia coli): 100%
- inhibition at 50 µg/mL (Pseudomonas aeruginosa): 96%
- inhibition at 50 µg/mL (Cryptococcus neoformans): 0%

Compound: CCN(CC)CCCC(C)Nc1ccnc2cc(Cl)ccc12 (centres unmarked) [CQ, Chloroquine, reference compound]
- IC50 [6]: > 0.238 µg/mL
- IC50 (P. falciparum (W2 Clone); Plasmodium falciparum, W2, read-out: IC50 (second IC50 column of Table 7, presumably P. falciparum W2)): 0.116 µg/mL (≈ 0.363 µM)
- SI (second SI column of Table 7, presumably W2) (P. falciparum (W2 Clone)): >2.1
- inhibition at 0.0793 µg/mL (P. falciparum (D6 Clone); Plasmodium falciparum, D6, read-out: %Inhibition P. falciparum (D6 Clone)): 100%
- IC50 (P. falciparum (D6 Clone); Plasmodium falciparum, read-out: IC50): < 0.026 µg/mL
- SI (first SI column of Table 7, presumably D6) (P. falciparum (D6 Clone)): >9

Compound: O=c1c(-c2ccc(O)cc2)coc2cc(O)cc(O)c12 [Compound 1, genistein]
- IC50 (iNOS): 9 µg/mL (≈ 33.3 µM)
- IC50 (NF-κB): 28 µg/mL (≈ 104 µM)

Compound: O=c1cc(-c2ccccc2)oc2cc(O[C@@H]3O[C@H](CO)[C@@H](O)[C@H](O)[C@H]3O)cc(O)c12 [Compound 3, chrysin-7-O-β-D-glucopyranoside]
- IC50 [1]: > 10000 nM
- IC90 [1]: > 10000 nM
- IC50 (Candida albicans; pure compounds): > 20 µg/mL
- IC50 ([6]; Vero cells): > 4.76 µg/mL
- IC50 (iNOS): 20 µg/mL (≈ 48 µM)
- IC50 ([7]; read-out: T. brucei IC50): > 10000 nM
- IC90 ([7]; read-out: T. brucei IC90): > 10000 nM
- SI (second SI column of Table 7, presumably W2) (P. falciparum (W2 Clone)): 1
- IC50 [3]: > 10000 nM
- IC90 [3]: > 10000 nM
- IC50 (Escherichia coli; pure compounds): > 20 µg/mL
- SI (first SI column of Table 7, presumably D6) (P. falciparum (D6 Clone)): 1
- IC50 (Pseudomonas aeruginosa; pure compounds): > 20 µg/mL
- IC50 [4]: > 10000 nM
- IC90 [4]: > 10000 nM
- IC50 (Staphylococcus aureus): > 20 µg/mL
- IC50 (Cryptococcus neoformans; pure compounds): > 20 µg/mL
- THP1 Cytotoxicity C90 (THP1 cells): >10 µM
- IC50 (THP1 cytotoxicity; THP1 cells, read-out: THP1 Cytotoxicity IC50): > 10000 nM
